# Experimental data published in patent US9018391B2, “Inhibitors of beta-secretase” (Boehringer Ingelheim International GmbH, priority 2012, dated 2015).
# Assays:
# [1] = target: truncated human beta-secretase, BACE1 (amino acids 1-454) (Homo sapiens (Human), UniProt P56817); test: BACE1 Assay (Assay 1), fluorescence quench assay; format: biochemical; conditions: pH 4.4
# Experimental: The substrate was dissolved at 1 mg/ml in DMSO.
# The assay was performed in the presence of OptiMEM™ (supernatant collected over 24 h and cleared from cellular debris by centrifugation) containing the ectodomain of BACE1, 25 μl water containing the desired 2-fold concentration of test compound and 2% DMSO, 1 μM substrate peptide, 20 mM NaOAc, pH 4.4, and 0.04% Triton-X100 in a total assay volume of 50 μl in a 384 well plate. In general, 25 μl of compound dilution were added to the plate followed by the addition of 10 μl of BACE1 containing OptiMEM™ diluted 1:10 in water with 0.2% Triton X-100. The reaction was started with the addition of 15 μl substrate in NaOAc buffer. The reaction was incubated at rt (dark) in an Envision® multilabel reader (Perkin Elmer) and the cleavage of the substrate was recorded as kinetic for […] at ex: 485 nm, em: 538 nm. Blank wells containing no enzyme were included on each plate.
# The intensity of fluorescence was regressed against time in order to derive velocities of reaction in all 384 wells. These velocities were used for calculating percent control using an uninhibited control containing 1% DMSO as 100% and a blank control performed in the absence of enzyme as 0%. IC50 values were calculated by fitting percent control vs. test compound concentration using Assay Explorer®.
# hERG channel = hERG channel (Homo sapiens (Human), UniProt Q12809); test: hERG-Channel Assay (Assay 2), whole-cell patch clamp in HEK293 cells stably transfected with hERG cDNA; format: cell-based; conditions: for inhibition at 10 µM: human, HEK293 cells stably transfected with hERG cDNA, pH 7.4, 35° C.
# Source text: hERG-Channel Assay (Assay 2)
# Cells: HEK (human embryonic kidney) 293 cells were stably transfected with hERG cDNA.
# Cells were superfused with a bath solution containing (mM): NaCl (137), KCl (4.0), MgCl2 (1.0), CaCl2 (1.8), Glucose (10), HEPES (10), pH 7.4 with NaOH. Patch pipettes were made from borosilicate glass tubing using a horizontal puller and filled with pipette solution containing (mM): K-aspartate (130), MgCl2 (5.0), EGTA (5.0), K2ATP (4.0), HEPES (10.0), pH 7.2 with KOH. Resistance of the microelectrodes was in the range between 2 and 5 MΩ.
# Stimulation and Recording:
# Membrane currents were recorded using an EPC-10 patch clamp amplifier and PatchMaster software. hERG-mediated membrane currents were recorded at 35° C., using the whole-cell configuration of the patch-clamp technique. Transfected HEK293 cells were clamped at a holding potential of −60 mV and hERG-mediated inactivating tail currents were elicited using a pulse pattern with fixed amplitudes (activation/inactivation: 40 mV for 2000 ms; recovery: −120 mV for 2 ms; ramp to 40 mV in 2 ms; inactivating tail current: 40 mV for 50 ms) repeated at 15 s intervals. During each inter-pulse interval, 4 pulses scaled down by a factor of 0.2 were recorded for a P/n leak subtraction procedure. Rs compensation was employed up to a level that safely allowed recording devoid of ringing.
# Compound Preparation and Application:
# The different concentrations of the test compounds were applied sequentially on each of the different cells investigated. A steady state level of baseline current was measured for at least 6 sweeps prior to the application of the first test compound concentration.
# The test compound was dissolved in DMSO to yield a master stock solution which was diluted further in DMSO to stock solutions needed for the lower concentrations. Final dilutions in extracellular buffer were prepared freshly from these stocks by a 1:1000 dilution step each before starting the experiments.
# Peak current amplitudes were measured 3 ms after the ramp to +40 mV. For baseline and each concentration, the peak currents of the three last sweeps before application of the next concentration were averaged. Residual currents (I/I0) were calculated for each cell as the fraction of actual average peak current and average baseline peak current.
# [2] = In Vitro Phospholipidosis Assay (Assay 3), Nile red staining; format: cell-based, human; conditions: human, first effect concentration, U937 cells, read-out: Phospholipidosis FEC IC50 μM (assay 3)
# Experimental: In Vitro Phospholipidosis Assay (Assay 3)
# The phospholipidogenic potential of test compounds was assayed using the human hematopoetic U937 cell line. The test principle was to analyze the phospholipid content by staining the cells with the fluorescent dye Nile red.
# U937 cells were seeded into cell culture plates at 0.5×10^6 cells/mL in RPMI medium containing 10% FBS, 1% DMSO, and 0.005% gentamicin. The cells were cultivated with or without different concentrations of test compound for 48 h under standard culture conditions.
# For harvesting, the cells were centrifuged at 130×g for 4 min and washed once with PBS. Then, 2×0.5 mL cell suspensions were prepared for non-fixed cell measurement (0.5 mL for propidium iodide (PI) viability measurement and 0.5 mL for Nile red measurement).
# The remaining cells were fixed with 3.7% formaldehyde for 30 min. After a further centrifugation step, cells were resuspended with 1.3 mL Nile red working solution (1 μg/mL) and incubated for 5 min at rt. The cell suspension was washed twice with 3 mL PBS and centrifuged with 130×g for 4 min. The supernatant was discarded and the cells were resuspended with 0.5 mL PBS and kept for flow cytometry measurement.
# For Nile red staining of the 0.5 mL non-fixed cell samples, 50 μL of a ready to use Nile red solution (10 μg/mL) were added per sample. Samples were kept on ice for 5 min. Thereafter, they were washed once with 4 mL PBS (4° C., 250×g for 8 min) and finally resuspended in 400 μL PBS and kept for flow cytometry measurement.
# For the viability measurement, 12.5 μL of the ready to use PI solution (10 μg/mL) were added to the 0.5 mL non-fixed cell suspension. After 15 min of incubation on ice, the samples were measured by flow cytometry using a Coulter Epics XL/MCL flow cytometer.
# The viability of the cells of each sample was determined by flow cytometry measurement of the PI content at channel 2 (568-590 nm). Cut-off gates for the fluorescence-dependent differentiation between live and dead cells were defined based on the analysis of cell culture medium control samples.
# Only samples with a cell viability of >=90% relative to control samples were analyzed for phospholipidosis. Each Nile red sample (non-fixed and fixed samples) was measured by flow cytometry at channel 1 (504-541 nm) and channel 4 (660-680 nm).
# For each channel, relative Nile red fluorescence intensity of a test sample was calculated compared to control samples and expressed as a percentage of control fluorescence intensity. The assessment of the phospholipidogenic potential and the first effective concentration (FEC) of a test compound was done manually based on the fluorescence intensities at both wavelengths for the fixed cells, as well as for the non-fixed cells.
# Human Hepatocytes = test: In Vitro Hepatocyte Stability Assay (Assay 4); format: in vitro ADME; conditions: predicted blood clearance as percent of hepatic blood flow
# Experimental: In Vitro Hepatocyte Stability Assay (Assay 4)
# The metabolic degradation of test compounds was assayed in a hepatocyte suspension. Cryopreserved hepatocytes were incubated in an appropriate buffer system (e.g., Dulbecco's modified eagle medium plus 3.5 μg glucagon/500 mL, 2.5 mg insulin/500 mL and 3.75 mg/500 mL hydrocortison) containing 5% species serum. Following a 30 min preincubation in an incubator (37° C., 10% CO2), 5 μl of test compound solution (80 μM; from 2 mM in DMSO stock solution diluted 1:25 with medium) were added into 395 μl hepatocyte suspension (cell density in the range 0.25−5×10^6 cells/mL, typically 1×10^6 cells/mL; final concentration of test compound final DMSO concentration […]).
# The cells were incubated for six h (incubator, orbital shaker) and samples (25 μl) were taken at 0, 0.5, 1, 2, 4 and 6 h. Samples were transferred into acetonitrile and pelleted by centrifugation (5 min). The supernatant was transferred to a new 96 DeepWell™ plate, evaporated under nitrogen and resuspended. Decline of compound was analyzed by HPLC-MS/MS. CLint (in vitro hepatic intrinsic clearance) was calculated as follows: CLint=Dose/AUC=(C0/CD)/(AUD+Clast/k)×1000/60
# C0: initial concentration in the incubation [μM];
# CD: cell density of vital cells [cells/mL];
# AUD: area under the data [μM×h];
# Clast: concentration of last data point [μM];
# k: slope of the regression line for compound decline [h^−1].
# The calculated in vitro hepatic intrinsic clearance was scaled up to the intrinsic in vivo hepatic clearance (Clint in vivo) and used to predict hepatic in vivo blood clearance (CL) by the use of a liver model (well-stirred model), as follows: CLint,in vivo[mL/min/kg]=(CLint[μL/min/10^6 cells]×hepatocellularity[10^6 cells/g liver]×liver factor [g/kg body weight])/1000 CL[mL/min/kg]=CLint,to vivo×hepatic blood flow[ml/min/kg]/(CLint,in vivo[ml/min/kg]+hepatic blood flow[mL/min/kg])
# The in vivo blood clearance was transformed into percent of the hepatic blood flow (% Qh): % Qh=CL[mL/min/kg]/hepatic blood flow[mL/min/kg])×100
# Hepatocellularity, human: 1.2×10^7 cells/g liver;
# Liver factor, human: 25.7 g/kg body weight;
# Hepatic blood flow, human: 21 mL/(min×kg).
# Sequence of hERG channel (Q12809 whole entry): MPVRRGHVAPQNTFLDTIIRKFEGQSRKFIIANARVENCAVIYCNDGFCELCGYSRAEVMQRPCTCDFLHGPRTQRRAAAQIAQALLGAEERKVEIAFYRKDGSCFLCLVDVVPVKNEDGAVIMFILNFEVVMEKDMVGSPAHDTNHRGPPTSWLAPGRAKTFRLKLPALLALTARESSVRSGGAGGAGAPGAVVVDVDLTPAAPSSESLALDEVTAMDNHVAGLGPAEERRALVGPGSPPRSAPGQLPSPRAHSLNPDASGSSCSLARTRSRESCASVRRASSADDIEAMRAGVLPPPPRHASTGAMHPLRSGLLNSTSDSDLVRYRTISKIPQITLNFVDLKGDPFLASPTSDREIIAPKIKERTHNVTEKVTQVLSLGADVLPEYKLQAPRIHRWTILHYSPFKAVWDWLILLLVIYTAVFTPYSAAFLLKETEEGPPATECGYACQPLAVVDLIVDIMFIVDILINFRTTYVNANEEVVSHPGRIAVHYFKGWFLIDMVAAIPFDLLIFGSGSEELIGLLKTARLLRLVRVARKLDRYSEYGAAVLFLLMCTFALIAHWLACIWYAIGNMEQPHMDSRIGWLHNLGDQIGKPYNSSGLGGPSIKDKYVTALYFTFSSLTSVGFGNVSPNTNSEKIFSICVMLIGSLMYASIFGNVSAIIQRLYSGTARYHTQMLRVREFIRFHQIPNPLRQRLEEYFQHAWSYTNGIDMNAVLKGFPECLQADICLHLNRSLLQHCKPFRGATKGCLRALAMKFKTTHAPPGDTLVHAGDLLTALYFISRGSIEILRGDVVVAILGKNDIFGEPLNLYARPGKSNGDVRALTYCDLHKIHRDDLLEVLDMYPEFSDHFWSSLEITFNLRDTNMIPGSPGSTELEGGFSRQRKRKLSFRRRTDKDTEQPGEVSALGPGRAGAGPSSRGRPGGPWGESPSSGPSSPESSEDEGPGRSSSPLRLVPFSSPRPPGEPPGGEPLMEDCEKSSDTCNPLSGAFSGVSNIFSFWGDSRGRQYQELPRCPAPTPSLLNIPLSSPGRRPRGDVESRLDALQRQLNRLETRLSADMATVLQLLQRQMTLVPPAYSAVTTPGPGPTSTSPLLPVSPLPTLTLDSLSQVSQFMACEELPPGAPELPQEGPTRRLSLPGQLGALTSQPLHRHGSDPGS
# Sequence of truncated human beta-secretase, BACE1 (amino acids 1-454) (P56817 22-454): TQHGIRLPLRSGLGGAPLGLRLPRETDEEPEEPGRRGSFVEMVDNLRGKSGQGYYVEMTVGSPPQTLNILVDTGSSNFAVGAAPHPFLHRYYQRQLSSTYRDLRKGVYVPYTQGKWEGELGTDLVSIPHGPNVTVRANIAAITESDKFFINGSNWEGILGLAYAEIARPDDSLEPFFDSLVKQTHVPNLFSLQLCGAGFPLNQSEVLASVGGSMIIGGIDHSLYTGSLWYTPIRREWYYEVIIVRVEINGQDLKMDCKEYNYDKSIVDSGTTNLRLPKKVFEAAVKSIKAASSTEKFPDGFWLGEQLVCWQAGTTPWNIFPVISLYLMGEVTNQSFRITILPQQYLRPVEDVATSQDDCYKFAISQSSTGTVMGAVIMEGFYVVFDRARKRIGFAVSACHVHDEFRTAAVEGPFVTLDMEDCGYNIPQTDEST
Compound,IC50 [1],inhibition at 10 µM (hERG channel),IC50 at 48 h [2],In vitro Human Hepatocytes % Qh @ 1 μM (assay 4) (Human Hepatocytes),% Inhibition hERG @ 10 μM (assay 2) (hERG channel; 35° C.)
Cc1cc(CN2C(=O)[C@]3(N=C2N)c2cc(C#N)ccc2C[C@@]32C[C@@H](C)[C@H](O)[C@@H](C)C2)ccn1.O=C(O)C(F)(F)F [Example 16],9.4 nM,1.4%,200 µM,19 % Qh,–
C[C@@H]1C[C@@]2(Cc3ccc(C#N)cc3[C@]23N=C(N)N(CC(C)(C)Cl)C3=O)C[C@H](C)[C@H]1O [Example 3],3 nM,20%,200 µM,3.1 % Qh,–
"COC1CCC2(CC1)Cc1ccc(C#CC3CC3)cc1C21N=C(N)N(Cc2ncco2)C1=O (stereo not drawn) [drawing 17, reference compound]",5.1 nM,–,–,8.5 % Qh,60%
COC1CCC2(CC1)Cc1ccc(Cl)cc1[C@]21N=C(N)N(C)C1=O (stereo partly drawn) [reference compound],–,58%,100 µM,–,–
C[C@@H]1C[C@@]2(Cc3ccc(C#N)cc3[C@]23N=C(N)N(CCc2ccncc2)C3=O)C[C@H](C)[C@H]1O.O=C(O)C(F)(F)F [Example 15],9.7 nM,15.2%,800 µM,22.9 % Qh,–
C[C@@H]1C[C@@]2(Cc3ccc(-c4cncnc4)cc3[C@]23N=C(N)N(CC(C)(C)F)C3=O)C[C@H](C)[C@H]1O [Example 5],2.6 nM,12%,400 µM,6.1 % Qh,–
C[C@@H]1C[C@@]2(Cc3ccc(C#N)cc3[C@]23N=C(N)N(CC2CC(F)(F)C2)C3=O)C[C@H](C)[C@H]1O.O=C(O)C(F)(F)F [Example 14],4.5 nM,27%,200 µM,5.2 % Qh,–
C[C@@H]1C[C@@]2(Cc3ccc(NC(=O)C(C)(C)F)cc3[C@]23N=C(N)N(CC(C)(C)F)C3=O)C[C@H](C)[C@H]1O [Example 6],6.3 nM,1.8%,400 µM,11 % Qh,–
"COC1CCC2(CC1)Cc1ccc(C#CC3CC3)cc1C21N=C(N)N(Cc2ncco2)C1=O (stereo not drawn) [drawing 13, reference compound]",5.1 nM,60%,–,8.5 % Qh,–
C[C@@H]1C[C@@]2(Cc3ccc(C#N)cc3[C@]23N=C(N)N(CC2CC2)C3=O)C[C@H](C)[C@H]1O [Example 10],10.6 nM,33%,> 100 µM,0 % Qh,–
CC[C@@H]1C[C@@]2(Cc3ccc(C#N)cc3[C@]23N=C(N)N(C[C@H]2COCCO2)C3=O)C[C@H](C)[C@H]1O [Example 8],1.9 nM,6%,800 µM,19.1 % Qh,–
C[C@H]1C[C@@]2(CC[C@@H]1O)Cc1ccc(-c3cccnc3)cc1[C@]21N=C(N)N(Cc2ncccn2)C1=O [Example 12],6.8 nM,15%,100 µM,0 % Qh,–
CO[C@H]1CC[C@]2(CC1)Cc1ccc(OCC3CC3)cc1C21N=C(N)N(CCC(F)(F)F)C1=O (stereo partly drawn) [reference compound],8.3 nM,87%,–,–,–
"COC1CCC2(CC1)Cc1ccc(C#N)cc1[C@]21N=C(N)N(C)C1=O (stereo partly drawn) [drawing 10, reference compound]",–,90%,400 µM,14 % Qh,–
COC1CCC2(CC1)Cc1ccc(C#CC3CC3)cc1C21N=C(N)N(Cc2cncnc2)C1=O (stereo not drawn) [reference compound],1.1 nM,60%,25 µM,36 % Qh,–
CO[C@H]1CC[C@]2(CC1)Cc1ccc(CCC(C)C)cc1C21N=C(N)N(CC(F)(F)F)C1=O (stereo partly drawn) [reference compound],3.5 nM,89%,–,88 % Qh,–
COCC(C)N1C(=O)C2(N=C1N)c1cc(C#N)ccc1CC21CCC(OC)CC1 (stereo not drawn) [reference compound],256 nM,–,–,–,–
